For 32 compounds, IC50 results are on record in patent US8975265B2, “Substituted imidazo[1,2-a]pyrimidines and —pyridines” (Bayer Intellectual Property GmbH, priority 2010, dated 2015).

The structures appear in SMILES notation. Read-outs that look alike come from different tables or passages of the source.

Test [1] concerns KPL-4 breast cancer cell line. Put plainly: Tumor cell proliferation assay (CellTiter-Glo, 72 h), KPL-4. As to conditions: KPL4, 72h drug exposure. The format is cell-based. On the procedure: Biological Assay 4.0: Tumor Cell Proliferation Assays
Compounds were tested in a cell-based assay that measures the capacity of the compounds to inhibit tumour cell proliferation following a 72h drug exposure. Cell viability is determined using CellTiter-Glow® (CTG, Promega, cat# G7571/2/3). The CellTiter-Glo® Luminescent Cell Viability Assay is a homogeneous method to determine the number of viable cells in culture. Detection is based on using the luciferase reaction to measure the amount of ATP from viable cells. The amount of ATP in cells correlates with cell viability. Within minutes after a loss of membrane integrity, cells lose the ability to synthesize ATP, and endogenous ATPases destroy any remaining ATP; thus the levels of ATP fall precipitously.
For each cell line assayed, cells were plated onto a separate plate for determination of […] at t=0 hour and t=72 hour time points. Following overnight incubation at 37° C., chemiluminescence values for the t=0 samples were determined after adding 10 μl medium and 100 μl CTG solution according to manufacture protocol. Plates for the t=72 hour time points were treated with compounds diluted into growth medium at ten times final concentration added in 10 μL to the cell culture plate. Cells were then incubated for 72 hours at 37° C. Chemiluminescence values for the t=72 hour samples were determined. […] Experiments were controlled using a reference compound as standard.
In general terms: In ATP-based viability assays light output follows the ATP content of the culture.

Test [2] addresses His-tagged human recombinant kinase full-length Akt1 (Homo sapiens (Human), UniProt P31749). Put plainly: Akt1 kinase assay (TR-FRET). The format is biochemical. Particulars: 10 μM ATP; read-out: Akt1, median IC50. The method, then:
Biological Assay 1.0: Akt1 Kinase Assay
Akt1 inhibitory activity of compounds of the present invention was quantified employing the Akt1 TR-FRET assay as described in the following paragraphs.
As substrate for the kinase reaction the biotinylated peptide biotin-Ahx-[…] (C-terminus in amide form) was used which can be purchased e.g. from the company Biosynthan GmbH (Berlin-Buch, Germany).
For the assay 50 nl of a 100 fold concentrated solution of the test compound in DMSO was pipetted into a black low volume 384 well microtiter plate (Greiner Bio-One, Frickenhausen, Germany), 2 μl of a solution of Akt1 in assay buffer [50 mM TRIS/HCl pH 7.5, 5 mM MgCl2, 1 mM dithiothreitol, 0.02% (v/v) Triton X-100 (Sigma)] were added and the mixture was incubated for 15 min at 22° C. to allow prebinding of the test compounds to the enzyme before the start of the kinase reaction. […] The concentration of Akt1 in the assay was adjusted depending of the activity of the enzyme lot and was chosen appropriate to have the assay in the linear range, typical enzyme concentrations were in the range of about 0.05 ng/μl (final conc. in the 5 μl assay volume).
The resulting mixture was incubated 1 h at 22° C. to allow the binding of the biotinylated phosphorylated peptide to the streptavidine-XL665 and the antibodies. Subsequently the amount of phosphorylated substrate was evaluated by measurement of the resonance energy transfer from the anti-mouse-IgG-Eu-Chelate to the streptavidine-XL665.

Test [3] has as its system p-AKT1/2/3-S473 in KPL4 breast tumour cell line. In words: Cellular p-AKT1/2/3-S473 assay. The format is cell-based. As to conditions: read-out: pAKT-S743 median IC50. The method, then:
The molecular mechanism of action was investigated in a set of experiments to assess the inhibition of the PI3K-AKT-mTOR pathway in responsive cell lines such as KPL4 breast tumour cell line (PIK3CAH1047R, HER20/E and hormone independent). The phospho-substrates of PI3K-AKT-mTOR axis were used as the read-outs to reflect pathway inhibition. Cells were seeded at 60-80% confluency per well in 96-well cell culture plates. After overnight incubation at 37° C. 5% CO2, cells were treated with compounds and vehicle at 37° C. for 2 hours. […] All measurements where at least done in duplicates and confirmed by independent repetition.
Alternatively pAKT-S473 was measured using the “Akt Duplex” of the MULTI-SPOT® Assay System (Fa. Meso Scale Discovery, Cat# N41100B-1) following manufacturers instructions. Each assay used 20 μg of protein extract and measured total AKT and p-AKT content simultaneously in one well. All measurements where at least done in duplicates and confirmed by independent repetition. Values for P-AKT are expressed as percentage of P-AKT level compared to total-AKT content of the extracts.

The mark [4] stands for this setting: KPL4 breast tumour cell line, 2 hours treatment.

Sequence of His-tagged human recombinant kinase full-length Akt1 (P31749 whole entry): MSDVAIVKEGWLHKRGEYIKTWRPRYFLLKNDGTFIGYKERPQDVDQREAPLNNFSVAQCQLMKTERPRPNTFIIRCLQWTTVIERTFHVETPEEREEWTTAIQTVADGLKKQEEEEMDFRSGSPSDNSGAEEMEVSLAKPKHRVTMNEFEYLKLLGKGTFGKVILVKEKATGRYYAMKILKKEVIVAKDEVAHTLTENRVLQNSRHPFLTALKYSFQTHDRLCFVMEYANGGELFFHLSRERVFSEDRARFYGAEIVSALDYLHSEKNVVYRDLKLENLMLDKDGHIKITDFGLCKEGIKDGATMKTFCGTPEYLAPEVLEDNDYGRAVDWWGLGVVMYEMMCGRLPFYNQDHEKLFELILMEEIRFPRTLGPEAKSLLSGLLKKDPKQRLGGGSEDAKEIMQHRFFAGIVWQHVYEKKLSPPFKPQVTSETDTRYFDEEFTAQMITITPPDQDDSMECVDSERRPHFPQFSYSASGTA

In general, IC50 refers to the point on the concentration scale where inhibition reaches its midpoint. For `NC1(c2ccc(-c3nc4ccc(Br)cn4c3-c3ccccc3)cc2)CCC1` [Example 2-139], the IC50 in test [1] was 2000 nM; in test [2], 44 nM; in test [3] (KPL4, 2 h), 181 nM.

With `NC1(c2ccc(-c3nc4c(C5CC5)cccn4c3-c3ccccc3)cc2)CCC1` [Example 2-47], the IC50 in test [1] was 2000 nM; in test [2], 140 nM; in test [3] (setting [4]) it was 339 nM.

For `NC1(c2ccc(-c3nc4cc(C(=O)O)ccn4c3-c3ccccc3)cc2)CCC1` [Example 2-120], the values for the IC50 in test [1], in test [2] and in test [3] (setting [4]) were 10000 nM, 550 nM and 8120 nM, respectively.

For `COC(=O)/C=C/c1ccn2c(-c3ccccc3)c(-c3ccc(C4(N)CCC4)cc3)nc2c1` [Example 2-123], the IC50 was 2400 nM in test [1], 345 nM in test [2] and 268 nM in test [3] (setting [4]).

With `NC1(c2ccc(-c3nc4c(-c5cn[nH]c5)cccn4c3-c3ccccc3)cc2)CCC1` [Example 2-50], the IC50 is 1900 nM in test [1], 99 nM in test [2] and 297 nM in test [3] (setting [4]).

For `NC1(c2ccc(-c3nc4nc(OCCN5CCCC5=O)ccn4c3-c3ccccc3)cc2)CCC1` [Example 2-64], the IC50 was 3200 nM in test [1], 1660 nM in test [2] and 203 nM in test [3] (setting [4]).

Consider `C#Cc1ccn2c(-c3ccccc3)c(-c3ccc(C4(N)CCC4)cc3)nc2c1` [Example 7-0, 1-[4-(7-ethynyl-3-phenyl-imidazo[1,2-a]pyridin-2-yl)-phenyl]-cyclobutylamine], for which the half-inhibitory concentration (IC50) stood at 2400 nM in test [1], 1660 nM in test [2] and 1770 nM in test [3] (setting [4]).

With `COc1cc(COc2ccn3c(-c4ccccc4)c(-c4ccc(C5(N)CCC5)cc4)nc3n2)ccn1` [Example 2-28], the IC50 stood at 1800 nM in test [1], 179 nM in test [2] and 114 nM in test [3] (setting [4]).

Regarding `NC1(c2ccc(-c3nc4c(O)cccn4c3-c3ccccc3)cc2)CCC1` [Example 5-1, 2-[4-(1-amino-cyclobutyl)-phenyl]-3-phenyl-imidazo[1,2-a]pyridin-8-ol], the IC50 stood at 10000 nM in test [1], 590 nM in test [2] and 3480 nM in test [3] (setting [4]).

As for `COc1ccc(COc2ccn3c(-c4ccccc4)c(-c4ccc(C5(N)CCC5)cc4)nc3n2)cn1` [Example 2-26], the figures for the IC50 in test [1], in test [2] and in test [3] (setting [4]) were 1900 nM, 221 nM and 90 nM, respectively.

On to `CNC(=O)c1ccn2c(-c3ccccc3)c(-c3ccc(C4(N)CCC4)cc3)nc2c1` [Example 2-122], for which the half-inhibitory concentration (IC50) in test [1] turned out to be 1200 nM; in test [2] it was 409 nM; in test [3] (setting [4]), 46 nM.

For `CCOC(=O)c1cccn2c(-c3ccccc3)c(-c3ccc(C4(N)CCC4)cc3)nc12` [Example 2-43], the IC50 amounted to 9200 nM in test [1], 62 nM in test [2] and 1340 nM in test [3] (setting [4]).

For the compound `NC1(c2ccc(-c3nc4ccc(-c5cccnc5)cn4c3-c3ccccc3)cc2)CCC1` [Example 2-137], the IC50 in test [1] was found to be 1700 nM; in test [2], 541 nM; in test [3] (setting [4]), 149 nM.

Consider `NC1(c2ccc(-c3nc4ccc(-c5nn[nH]n5)cn4c3-c3ccccc3)cc2)CCC1` [Example 2-135], for which the IC50 came to 10000 nM in test [1], 74 nM in test [2] and 9810 nM in test [3] (setting [4]).

As for `NC(=O)CCc1ccn2c(-c3ccccc3)c(-c3ccc(C4(N)CCC4)cc3)nc2c1` [Example 8-0, 3-{2-[4-(1-amino-cyclobutyl)-phenyl]-3-phenyl-imidazo[1,2-a]pyridin-7-yl}-propionamide], the IC50 in test [1] amounted to 10000 nM; in test [2], 12700 nM; in test [3] (setting [4]), 1270 nM.

As to `Cc1cccn2c(-c3ccccc3)c(-c3ccc(C4(N)CCC4)cc3)nc12` [Example 2-5], the values for the IC50 in test [1], in test [2] and in test [3] (setting [4]) were 4300 nM, 100 nM and 209 nM, respectively.

For `COc1ccc2nc(-c3ccc(C4(N)CCC4)cc3)c(-c3ccccc3)n2c1` [Example 2-17], the values for the IC50 in test [1], in test [2] and in test [3] (setting [4]) were 1500 nM, 36 nM and 35 nM, respectively.

Regarding `NC1(c2ccc(-c3nc4ccc(C(=O)O)cn4c3-c3ccccc3)cc2)CCC1` [Example 2-51], the results for the IC50 in test [1], in test [2] and in test [3] (setting [4]) were 10000 nM, 91 nM and 4750 nM, respectively.

With `NC1(c2ccc(-c3nc4ccc(CO)cn4c3-c3ccccc3)cc2)CCC1` [Example 2-25], the IC50 in test [1] was 2300 nM; in test [2] it was 504 nM; in test [3] (setting [4]), 213 nM.

For `NC(=O)/C=C/c1ccc2nc(-c3ccc(C4(N)CCC4)cc3)c(-c3ccccc3)n2c1` [Example 2-142], the IC50 in test [1] came to 2600 nM; in test [2] it was 347 nM; in test [3] (setting [4]), 114 nM.

In the case of `Cn1cncc1-c1ccn2c(-c3ccccc3)c(-c3ccc(C4(N)CCC4)cc3)nc2c1` [Example 2-116], the IC50 in test [1] is 1600 nM; in test [2] it was 236 nM; in test [3] (setting [4]) it was 63 nM.

With `C=Cc1ccn2c(-c3ccccc3)c(-c3ccc(C4(N)CCC4)cc3)nc2c1` [Example 2-108, 1-[4-(3-phenyl-7-vinyl-imidazo[1,2-a]pyridin-2-yl)-phenyl]-cyclobutylamine], the IC50 came out at 10000 nM in test [1], 1950 nM in test [2] and 3100 nM in test [3] (setting [4]).

For the compound `Cn1cc(-c2ccn3c(-c4ccccc4)c(-c4ccc(C5(N)CCC5)cc4)nc3c2)cn1` [Example 2-150], the IC50 in test [1] was 1700 nM; in test [2], 558 nM; in test [3] (setting [4]), 66 nM.

For the compound `COCCOc1ccn2c(-c3ccccc3)c(-c3ccc(C4(N)CCC4)cc3)nc2n1` [Example 2-27], the IC50 in test [1] was found to be 1900 nM; in test [2] it was 1190 nM; in test [3] (setting [4]) it was 111 nM.

In the case of `NC1(c2ccc(-c3nc4ccc(-c5cc[nH]n5)cn4c3-c3ccccc3)cc2)CCC1` [Example 2-131], the results for the IC50 in test [1], in test [2] and in test [3] (setting [4]) were 1700 nM, 171 nM and 88 nM, respectively.

Regarding `CN(C)C(=O)COc1ccn2c(-c3ccccc3)c(-c3ccc(C4(N)CCC4)cc3)nc2c1` [Example 9-2], the values for the IC50 in test [1], in test [2] and in test [3] (setting [4]) were 900 nM, 258 nM and 25 nM, respectively.

With `NC1(c2ccc(-c3nc4ccc(C5CC5)cn4c3-c3ccccc3)cc2)CCC1` [Example 2-63], the half-inhibitory concentration (IC50) in test [1] is 2000 nM; in test [2], 734 nM; in test [3] (setting [4]) it was 256 nM.

For the compound `COC(=O)c1cc(Cl)c2nc(-c3ccc(C4(N)CCC4)cc3)c(-c3ccccc3)n2c1` [Example 2-60], the IC50 in test [1] came to 7700 nM; in test [2], 31 nM; in test [3] (setting [4]) it was 655 nM.

Take `C=Cc1ccc2nc(-c3ccc(C4(N)CCC4)cc3)c(-c3ccccc3)n2c1` [Example 2-48]: the values for the IC50 in test [1], in test [2] and in test [3] (setting [4]) were 2500 nM, 300 nM and 1030 nM, respectively.

With `NC1(c2ccc(-c3nc4cc(-c5nn[nH]n5)ccn4c3-c3ccccc3)cc2)CCC1` [Example 2-117], the IC50 worked out at 10000 nM in test [1], 26 nM in test [2] and 10000 nM in test [3] (setting [4]).

Regarding `CCOC(=O)c1ccn2c(-c3ccccc3)c(-c3ccc(C4(N)CCC4)cc3)nc2c1` [Example 2-119], the IC50 came to 4200 nM in test [1], 86 nM in test [2] and 725 nM in test [3] (setting [4]).

With `NC1(c2ccc(-c3nc4ccc(-c5ccccn5)cn4c3-c3ccccc3)cc2)CCC1` [Example 2-138], the half-inhibitory concentration (IC50) in test [1] was found to be 2400 nM; in test [2], 530 nM; in test [3] (setting [4]), 541 nM.
